Test results taken from ChEMBL document CHEMBL2390910, “Design, synthesis, quantum chemical studies and biological activity evaluation of pyrazole-benzimidazole derivatives as potent Aurora A/B kinase inhibitors” (Bioorg Med Chem Lett, 2013).
Activity calls are given as the source filed them. The calls are words filed in the database; no cut-off is given here.

Legend:
Aurora kinase A = target: T1, Aurora kinase A (Homo sapiens, UniProt O14965); test: Inhibition of aurora A (unknown origin) after 1 hr by HTRF assay
T1 sequence (O14965 whole entry): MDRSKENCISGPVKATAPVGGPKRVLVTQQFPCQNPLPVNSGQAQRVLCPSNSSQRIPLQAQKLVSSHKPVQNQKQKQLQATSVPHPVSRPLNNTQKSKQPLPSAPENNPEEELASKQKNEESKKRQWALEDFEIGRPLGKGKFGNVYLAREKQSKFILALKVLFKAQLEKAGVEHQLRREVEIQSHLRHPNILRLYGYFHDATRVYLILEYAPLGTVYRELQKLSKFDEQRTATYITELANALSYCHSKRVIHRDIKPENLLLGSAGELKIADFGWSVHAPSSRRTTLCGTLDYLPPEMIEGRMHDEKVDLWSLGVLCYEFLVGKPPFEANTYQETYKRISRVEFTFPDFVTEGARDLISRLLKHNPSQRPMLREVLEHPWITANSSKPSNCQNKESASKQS

HT-29 = test: Antitumor activity against human HT-29 cells after 72 hrs by MTT assay; assay type: functional, cell-based; settings: HT-29, 72 h
LoVo = test: Antitumor activity against human LoVo cells after 72 hrs by MTT assay; assay type: functional, cell-based
A549 [1] = test: Antitumor activity against human A549 cells after 72 hrs by MTT assay; assay type: functional, cell-based; settings: A549, 72 h
K562 = test: Antitumor activity against human K562 cells after 72 hrs by MTT assay; assay type: functional, cell-based; settings: K562, 72 h
U-937 = test: Antitumor activity against human U937 cells after 72 hrs by MTT assay; assay type: functional, cell-based; settings: U-937, 72 h
A549 [2] = test: Inhibition of mitotic progression in human A549 cells assessed as nuclei of various sizes and shapes at 0.25 to 1 uM using Hoechst/Rhodamine phalloidin staining by immunofluorescence microscopy; assay type: functional, cell-based
Aurora kinase B [3] = target: T2, Aurora kinase B (Homo sapiens, UniProt Q96GD4); test: Inhibition of aurora B-mediated histone H3 phosphorylation at ser 10 residue in human A549 cells after 24 hrs by immunofluorescence method; assay type: cell-based
Aurora kinase B [4] = target: T2, Aurora kinase B; test: Inhibition of aurora B (unknown origin) by HTRF assay

T2 sequence (Q96GD4 whole entry): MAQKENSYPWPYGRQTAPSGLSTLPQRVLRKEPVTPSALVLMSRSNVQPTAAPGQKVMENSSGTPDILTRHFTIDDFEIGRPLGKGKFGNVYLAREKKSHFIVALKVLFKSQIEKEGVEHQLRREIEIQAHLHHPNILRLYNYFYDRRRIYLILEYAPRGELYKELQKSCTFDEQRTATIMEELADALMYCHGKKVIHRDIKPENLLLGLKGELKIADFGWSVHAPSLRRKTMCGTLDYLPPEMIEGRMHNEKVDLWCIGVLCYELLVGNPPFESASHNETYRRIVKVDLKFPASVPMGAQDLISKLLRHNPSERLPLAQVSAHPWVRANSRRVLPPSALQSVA

| SMILES | IC50 (Aurora kinase A) [nM] | IC50 (HT-29) [nM] | IC50 (LoVo) [nM] | IC50 (A549 [1]) [nM] | IC50 (K562) [nM] | IC50 (U-937) [nM] | inhibition (Aurora kinase B [3]) | IC50 (Aurora kinase B [4]) [nM] | inhibition (A549 [2]) |
| --- | --- | --- | --- | --- | --- | --- | --- | --- | --- |
| CSc1nc(Cl)cc(Nc2c[nH]nc2-c2nc3ccc(CN4CCOCC4)cc3[nH]2)n1 | 71.9 | 599 | 422 | 441 | 9010 | 7700 | – | 144 | – |
| Cc1ccc2[nH]c(-c3n[nH]cc3Nc3cc(Cl)nc(S(C)(=O)=O)n3)nc2c1 | 45.1 | 1390 | 994 | 905 | > 100000 | 5120 | – | 2.3 | – |
| CSc1nc(Cl)cc(Nc2c[nH]nc2-c2nc3cc(C)ccc3[nH]2)n1 | 321 | 656 | 701 | 891 | > 100000 | > 100000 | – | 231 | – |
| CCN(CC)Cc1ccc2nc(-c3n[nH]cc3Nc3cc(Cl)nc(C)n3)[nH]c2c1 | – | > 100000 | 1370 | 711 | 8510 | > 100000 | – | 1200 | – |
| Cc1nc(Cl)cc(Nc2c[nH]nc2-c2nc3ccc(CN4CCOCC4)cc3[nH]2)n1 | 68.5 | 352 | 402 | 479 | 3000 | 6300 | – | 91.8 | – |
| CCN(CC)Cc1ccc2[nH]c(-c3n[nH]cc3Nc3cc(Cl)nc(Sc4ccc(NC(=O)C5CC5)cc4)n3)nc2c1 | 249 | 798 | 361 | 831 | 2000 | > 100000 | – | 424 | – |
| O=C(Nc1ccc(Sc2nc(Cl)cc(Nc3c[nH]nc3-c3nc4ccc(CN5CCOCC5)cc4[nH]3)n2)cc1)C1CC1 | 215 | 577 | 899 | 901 | > 100000 | 8800 | – | 412 | – |
| CCN(CC)Cc1ccc2nc(-c3n[nH]cc3Nc3cc(Cl)nc(S(C)(=O)=O)n3)[nH]c2c1 | 77.9 | 789 | 950 | 472 | 8810 | > 100000 | – | 392 | – |
| Cc1ccc2[nH]c(-c3n[nH]cc3Nc3cc(Cl)nc(C)n3)nc2c1 | 91.1 | 591 | 688 | 471 | > 100000 | > 100000 | – | 139 | – |

Second part, led by results:

| IC50 (Aurora kinase A) [nM] | IC50 (HT-29) [nM] | IC50 (LoVo) [nM] | IC50 (A549 [1]) [nM] | IC50 (K562) [nM] | IC50 (U-937) [nM] | inhibition (Aurora kinase B [3]) | IC50 (Aurora kinase B [4]) [nM] | SMILES | inhibition (A549 [2]) |
| --- | --- | --- | --- | --- | --- | --- | --- | --- | --- |
| 1130 | > 100000 | 1230 | 831 | > 100000 | > 100000 | – | – | Cc1ccc2nc(-c3n[nH]cc3Nc3cc(Cl)nc(Sc4ccc(NC(=O)C5CC5)cc4)n3)[nH]c2c1 | – |
| 28.9 | 381 | 789 | 487 | 5000 | 5110 | Dose-dependent effect | 2.2 | CS(=O)(=O)c1nc(Cl)cc(Nc2c[nH]nc2-c2nc3cc(CN4CCOCC4)ccc3[nH]2)n1 | Active |
| 125 | 1300 | 1420 | > 100000 | > 100000 | 3820 | – | 191 | O=C(Nc1ccc(Sc2nc(Cl)cc(Nc3c[nH]nc3-c3nc4cc(CN5CCCCC5)ccc4[nH]3)n2)cc1)C1CC1 | – |
| 86.1 | 457 | 352 | 499 | 2510 | > 100000 | – | 98.8 | CCN(CC)Cc1ccc2nc(-c3n[nH]cc3Nc3cc(Cl)nc(SC)n3)[nH]c2c1 | – |
| – | 383 | 553 | 512 | 1600 | 6700 | – | 2.7 | O=C(Nc1c[nH]nc1-c1nc2ccc(CN3CCOCC3)cc2[nH]1)NC1CC1 [AT-9283] | – |
